Square brackets hold non-standard residues; d marks the D form. Peptide text beside a SMILES is read from it. d1Nal = N[C@H](Cc1cccc2ccccc12)C(=O)O; dNle = CCCC[C@@H](N)C(=O)O; dDap = NC[C@@H](N)C(=O)O
tested on: human red blood cells; assay: Hemolytic activity; type: cell-based; details: red cells of human, 1 h, 150
Description: The percentage of hemolysis at 150 μM was determined for all compounds as previously described. Briefly, two-fold serial dilutions (2.35 to 150 μM) of compounds in PBS were mixed with a 0.5% v/v suspension of fresh human red blood cells (RBC) in the same buffer. After 1 h incubation at 37 °C, plates were centrifuged and aliquots of the supernatants were transferred to clear ELISA plates. Absorbance at 414 nm was determined and normalised with respect to a negative (PBS, 0%) and positive (melittin, 100%) control.

| Structure (SMILES) | %H (% Hemolysis at 150 µM) |
| --- | --- |
| CCCC[C@@H](NC(=O)[C@@H](CCCCN)NC(=O)[C@@H](Cc1cccc2ccccc12)NC(=O)[C@@H](CCCNC(=N)N)NC(=O)[C@@H](Cc1ccccc1)NC(=O)[C@@H](Cc1cccc2ccccc12)NC(=O)[C@@H](CCCCN)NC(=O)[C@H](N)CCCCN)C(N)=O [Compound 35, kk(1-nal)fr(1-nal)k(nle)-NH2] (H-[dK][dK][d1Nal][dF][dR][d1Nal][dK][dNle]-NH2; N-terminus assumed) | 49% |
| CCCC[C@@H](NC(=O)[C@H](NC(=O)[C@@H](Cc1cccc2ccccc12)NC(=O)[C@@H](CCCCN)NC(=O)[C@@H](Cc1ccccc1)NC(=O)[C@@H](Cc1cccc2ccccc12)NC(=O)[C@@H](CCCCN)NC(=O)[C@H](N)CCCCN)[C@H](C)O)C(N)=O [Compound 22, kk(1-nal)fk(1-nal)t(nle)-NH2] (H-[dK][dK][d1Nal][dF][dK][d1Nal][dT][dNle]-NH2; N-terminus assumed) | 66% |
| CCCC[C@@H](NC(=O)[C@@H](CCCCN)NC(=O)[C@@H](Cc1cccc2ccccc12)NC(=O)[C@@H](CO)NC(=O)[C@@H](Cc1ccccc1)NC(=O)[C@@H](Cc1cccc2ccccc12)NC(=O)[C@@H](CCCCN)NC(=O)[C@H](N)CCCCN)C(N)=O [Compound 13, kk(1-nal)fs(1-nal)k(nle)-NH2] (H-[dK][dK][d1Nal][dF][dS][d1Nal][dK][dNle]-NH2; N-terminus assumed) | 29% |
| CCCC[C@@H](NC(=O)[C@@H](CCCCN)NC(=O)[C@@H](Cc1cccc2ccccc12)NC(=O)[C@H](NC(=O)[C@@H](Cc1ccccc1)NC(=O)[C@@H](Cc1cccc2ccccc12)NC(=O)[C@@H](CCCCN)NC(=O)[C@H](N)CCCCN)C(C)C)C(N)=O [Compound 16, kk(1-nal)fv(1-nal)k(nle)-NH2] (H-[dK][dK][d1Nal][dF][dV][d1Nal][dK][dNle]-NH2; N-terminus assumed) | 54% |
| CCCC[C@@H](NC(=O)[C@@H](CCCCN)NC(=O)[C@@H](Cc1cccc2ccccc12)NC(=O)[C@@H](CCCCN)NC(=O)[C@@H](Cc1ccccc1)NC(=O)[C@@H](Cc1cccc2ccccc12)NC(=O)[C@@H](CCCNC(=N)N)NC(=O)[C@H](N)CCCCN)C(N)=O [Compound 34, kr(1-nal)fk(1-nal)k(nle)-NH2] (H-[dK][dR][d1Nal][dF][dK][d1Nal][dK][dNle]-NH2; N-terminus assumed) | 35% |
| CCCC[C@@H](NC(=O)[C@@H](CCCCN)NC(=O)[C@@H](Cc1cccc2ccccc12)NC(=O)[C@@H](CCCC)NC(=O)[C@@H](Cc1ccccc1)NC(=O)[C@@H](Cc1cccc2ccccc12)NC(=O)[C@@H](CCCCN)NC(=O)[C@H](N)CCCCN)C(N)=O [Compound 11, kk(1-nal)f(nle)(1-nal)k(nle)-NH2] (H-[dK][dK][d1Nal][dF][dNle][d1Nal][dK][dNle]-NH2; N-terminus assumed) | 33% |
| CCCC[C@@H](NC(=O)[C@@H](Cc1cccc2ccccc12)NC(=O)[C@@H](CCCCN)NC(=O)[C@@H](Cc1ccccc1)NC(=O)[C@@H](Cc1cccc2ccccc12)NC(=O)[C@@H](CCCCN)NC(=O)[C@H](N)CCCCN)C(=O)N[C@H](CCCCN)C(N)=O [Compound 26, kk(1-nal)fk(1-nal)(nle)k-NH2] (H-[dK][dK][d1Nal][dF][dK][d1Nal][dNle][dK]-NH2; N-terminus assumed) | 18% |
| CCCC[C@@H](NC(=O)[C@@H](CCCCN)NC(=O)[C@@H](Cc1cccc2ccccc12)NC(=O)[C@@H](Cc1ccccc1)NC(=O)[C@@H](Cc1ccccc1)NC(=O)[C@@H](Cc1cccc2ccccc12)NC(=O)[C@@H](CCCCN)NC(=O)[C@H](N)CCCCN)C(N)=O [Compound 12, kk(1-nal)ff(1-nal)k(nle)-NH2] (H-[dK][dK][d1Nal][dF][dF][d1Nal][dK][dNle]-NH2; N-terminus assumed) | 74% |
| CCCC[C@@H](NC(=O)[C@@H](CCCCN)NC(=O)[C@@H](Cc1cccc2ccccc12)NC(=O)[C@H](NC(=O)[C@@H](Cc1ccccc1)NC(=O)[C@@H](Cc1cccc2ccccc12)NC(=O)[C@@H](CCCCN)NC(=O)[C@H](N)CCCCN)[C@H](C)O)C(N)=O [Compound 14, kk(1-nal)ft(1-nal)k(nle)-NH2] (H-[dK][dK][d1Nal][dF][dT][d1Nal][dK][dNle]-NH2; N-terminus assumed) | 28% |
| CCCC[C@@H](NC(=O)[C@@H](CCCCN)NC(=O)[C@@H](Cc1cccc2ccccc12)NC(=O)[C@@H](CCCCN)NC(=O)[C@@H](Cc1ccccc1)NC(=O)[C@@H](Cc1cccc2ccccc12)NC(=O)[C@H](N)CCCCN)C(N)=O [Compound 27, k(1-nal)fk(1-nal)k(nle)-NH2] (H-[dK][d1Nal][dF][dK][d1Nal][dK][dNle]-NH2; N-terminus assumed) | 49% |
| CCCC[C@@H](NC(=O)[C@@H](Cc1ccccc1)NC(=O)[C@@H](Cc1cccc2ccccc12)NC(=O)[C@@H](CCCCN)NC(=O)[C@@H](Cc1ccccc1)NC(=O)[C@@H](Cc1cccc2ccccc12)NC(=O)[C@@H](CCCCN)NC(=O)[C@H](N)CCCCN)C(N)=O [Compound 20, kk(1-nal)fk(1-nal)f(nle)-NH2] (H-[dK][dK][d1Nal][dF][dK][d1Nal][dF][dNle]-NH2; N-terminus assumed) | 91% |
| CCCC[C@@H](NC(=O)[C@@H](CCCCN)NC(=O)[C@@H](Cc1cccc2ccccc12)NC(=O)[C@@H](CN)NC(=O)[C@@H](Cc1ccccc1)NC(=O)[C@@H](Cc1cccc2ccccc12)NC(=O)[C@@H](CCCCN)NC(=O)[C@H](N)CCCCN)C(N)=O [Compound 10, kk(1-nal)f(dap)(1-nal)k(nle)-NH2] (H-[dK][dK][d1Nal][dF][dDap][d1Nal][dK][dNle]-NH2; N-terminus assumed) | 28% |
| NCCCC[C@@H](N)C(=O)N[C@H](CCCCN)C(=O)N[C@H](Cc1cccc2ccccc12)C(=O)N[C@H](Cc1ccccc1)C(=O)N[C@H](CCCCN)C(N)=O [Compound 32, kk(1-nal)fk-NH2] (HELM PEPTIDE1{[dK].[dK].[O=C([C@@H](Cc1cccc2ccccc12)N[*:1])[*:2]].[dF].[dK].[am]}$$$$V2.0; N-terminus assumed) | 5% |
| CCCC[C@@H](NC(=O)[C@@H](Cc1cccc2ccccc12)NC(=O)[C@@H](CCCCN)NC(=O)[C@@H](CCCCN)NC(=O)[C@@H](Cc1ccccc1)NC(=O)[C@@H](Cc1cccc2ccccc12)NC(=O)[C@@H](CCCCN)NC(=O)[C@H](N)CCCCN)C(N)=O [Compound 25, kk(1-nal)fkk(1-nal)(nle)-NH2] (H-[dK][dK][d1Nal][dF][dK][dK][d1Nal][dNle]-NH2) | 50% |
| NCCCC[C@@H](N)C(=O)N[C@H](CCCCN)C(=O)N[C@H](Cc1cccc2ccccc12)C(=O)N[C@H](Cc1ccccc1)C(=O)N[C@H](CCCCN)C(=O)N[C@H](Cc1cccc2ccccc12)C(N)=O [Compound 31, kk(1-nal)fk(1-nal)-NH2] (HELM PEPTIDE1{[dK].[dK].[O=C([C@@H](Cc1cccc2ccccc12)N[*:1])[*:2]].[dF].[dK].[O=C([C@@H](Cc1cccc2ccccc12)N[*:1])[*:2]].[am]}$$$$V2.0; N-terminus assumed) | 20% |
| CCCC[C@@H](NC(=O)[C@@H](Cc1cccc2ccccc12)NC(=O)[C@@H](Cc1cccc2ccccc12)NC(=O)[C@@H](CCCCN)NC(=O)[C@@H](Cc1ccccc1)NC(=O)[C@@H](Cc1cccc2ccccc12)NC(=O)[C@@H](CCCCN)NC(=O)[C@H](N)CCCCN)C(N)=O [Compound 17, kk(1-nal)fk(1-nal)(1-nal)(nle)-NH2] (H-[dK][dK][d1Nal][dF][dK][d1Nal][d1Nal][dNle]-NH2; N-terminus assumed) | 89% |
| CCCC[C@@H](NC(=O)[C@@H](CCCC)NC(=O)[C@@H](Cc1cccc2ccccc12)NC(=O)[C@@H](CCCCN)NC(=O)[C@@H](Cc1ccccc1)NC(=O)[C@@H](Cc1cccc2ccccc12)NC(=O)[C@@H](CCCCN)NC(=O)[C@H](N)CCCCN)C(N)=O [Compound 19, kk(1-nal)fk(1-nal)(nle)(nle)-NH2] (H-[dK][dK][d1Nal][dF][dK][d1Nal][dNle][dNle]-NH2; N-terminus assumed) | 56% |
| CCCC[C@@H](NC(=O)[C@@H](CO)NC(=O)[C@@H](Cc1cccc2ccccc12)NC(=O)[C@@H](CCCCN)NC(=O)[C@@H](Cc1ccccc1)NC(=O)[C@@H](Cc1cccc2ccccc12)NC(=O)[C@@H](CCCCN)NC(=O)[C@H](N)CCCCN)C(N)=O [Compound 21, kk(1-nal)fk(1-nal)s(nle)-NH2] (H-[dK][dK][d1Nal][dF][dK][d1Nal][dS][dNle]-NH2; N-terminus assumed) | 85% |
| CCCC[C@@H](NC(=O)[C@@H](Cc1ccc(O)cc1)NC(=O)[C@@H](Cc1cccc2ccccc12)NC(=O)[C@@H](CCCCN)NC(=O)[C@@H](Cc1ccccc1)NC(=O)[C@@H](Cc1cccc2ccccc12)NC(=O)[C@@H](CCCCN)NC(=O)[C@H](N)CCCCN)C(N)=O [Compound 23, kk(1-nal)fk(1-nal)y(nle)-NH2] (H-[dK][dK][d1Nal][dF][dK][d1Nal][dY][dNle]-NH2; N-terminus assumed) | 74% |
| CCCC[C@@H](NC(=O)[C@@H](CCCNC(=N)N)NC(=O)[C@@H](Cc1cccc2ccccc12)NC(=O)[C@@H](CCCCN)NC(=O)[C@@H](Cc1ccccc1)NC(=O)[C@@H](Cc1cccc2ccccc12)NC(=O)[C@@H](CCCCN)NC(=O)[C@H](N)CCCCN)C(N)=O [Compound 36, kk(1-nal)fk(1-nal)r(nle)-NH2] (H-[dK][dK][d1Nal][dF][dK][d1Nal][dR][dNle]-NH2; N-terminus assumed) | 51% |

Source: article PMC6943423, “Structure-Activity Study of an All-D Antimicrobial Octapeptide D2D” (Molecules, 2019)
